“And” between values parts separate entries of the source, which are not always exact repeats. Equal values may be shown once.
Row | SMILES | melting point
1 | Cc1cc2cc(Cl)ccc2[nH]1 [5-chloro-2-methylindole] | 112 °C
2 | O=C(O)c1nn(Cc2ccc(Cl)cc2Cl)c2ccccc12 [lonidamine] | 207 °C
3 | CC(=O)Oc1cccc(C(=O)O)c1C [3-acetoxy-2-methylbenzoic acid] | 150 °C
4 | CN(C)c1ccncc1 [4-(dimethylamino)pyridine] | 112 °C
5 | c1ccc2c(c1)CC1(OCCO1)c1ccccc1CC21OCCO1 | 144 °C
6 | c1ccc(Nc2ccccc2)cc1 [diphenylamine] | 52 °C and 53.5 °C and 54 °C
7 | Oc1cc(C(F)(F)F)nc2ccc(Cl)cc12 [6-chloro-4-hydroxy-2-(trifluoromethyl)quinoline] | 279 °C
8 | C=CCCCCCCCCCC [1-dodecene] | -35 °C
9 | N#Cc1ccc2c(c1)N(CCCN1CCC(O)CC1)c1ccccc1S2 [Propericiazine (JAN)] | 82 °C
10 | OB(O)c1ccoc1 [furan-3-boronic acid] | 142 °C
11 | c1ccc(NNc2ccccc2)cc1 [hydrazobenzene] | 125 °C
12 | O[C@H](CS)[C@H](O)CS (racemic) [1,4-dithio-dl-threitol] | 42 °C
13 | c1ccc2c(c1)ccc1cc3c(ccc4ccccc43)cc12 [dibenzo[a,h]anthracene] | 266 °C
14 | O=C1C=CCCC1 [2-cyclohexen-1-one] | -53 °C
15 | O=C1C=C(/C=C/c2ccccc2)CCC1 [3-[(E)-2-phenylethenyl]cyclohex-2-en-1-one] | 66 °C
16 | Fc1ccc(Br)cc1 [1-bromo-4-fluorobenzene] | -16 °C
17 | [2H]C(Cl)(Cl)Cl [Trichloro(~2~H)methane] | -64 °C

Row | SMILES | melting point
18 | O=C1Cc2ccccc2C(=O)O1 [homophthalic anhydride] | 142 °C
19 | c1ccc2c(c1)ccc1ccccc12 [Phenanthrene] | 100 °C
20 | Oc1c(Cl)cccc1Cl [2,6-Dichlorophenol] | 68.5 °C
21 | CC(C)CC1=C/C(=C/c2ccc(-c3ccc([N+](=O)[O-])cc3)o2)C(=O)O1 | 163 °C
22 | COc1ccc(-c2csc(C(C#N)=Cc3ccc(O)cc3)n2)cc1 | 186 °C
23 | Cc1cccc(N)c1 [m-toluidine] | -30 °C
24 | C#C[C@]1(O)CC[C@H]2[C@@H]3CCC4=CC(=O)CC[C@@H]4[C@H]3CC[C@@]21CC [Levonorgestrel] | 236 °C
25 | O=[N+]([O-])c1ccc(F)c([N+](=O)[O-])c1 [1-fluoro-2,4-dinitrobenzene] | 27 °C
26 | C=C(C)CC1(CC)C(=O)NC(=S)NC1=O [methallatal] | 160 °C
27 | CC(C)NCC(O)COc1cccc2ccccc12 (configuration not stated) [propranolol] | 129 °C
28 | Nc1ccccc1C(=O)OCC=Cc1ccccc1 [anthranilic acid cinnamyl ester] | 65 °C
29 | O=C(O)c1cc([N+](=O)[O-])cc([N+](=O)[O-])c1O [3,5-dinitrosalicylic acid] | 171 °C
30 | Cn1nnc2ccccc21 [1-methyl-1h-benzotriazole] | 65 °C
31 | C(=C\c1ccccc1)/c1ccccc1 [trans-stilbene] | 124 °C
32 | COc1ccc(-c2csc(C(C#N)=Cc3cccs3)n2)cc1 | 141 °C
33 | N#CCc1ccc(Cl)cc1 [4-chlorobenzyl_cyanide] | 31 °C

Continued, values first:

Row | melting point | SMILES
34 | 214 °C | Cc1cc(C(=O)O)ccc1Cl [4-chloro-3-methylbenzoic acid]
35 | 166 °C | CC(C)(C)c1ccc(C(=O)O)cc1 [4-tert-butylbenzoic acid]
36 | 44 °C | CCC(C)(CO)CO [2-ethyl-2-methyl-1,3-propanediol]
37 | 159 °C | COc1ccc2c(c1)c(CC(=O)O)c(C)n2C(=O)c1ccc(Cl)cc1 [Indomethacin]
38 | 56 °C | O=C(/C=C/c1ccccc1)c1ccccc1 [trans-chalcone]
39 | 219 °C | C(=C/P(=O)(O)O)P(=O)(O)O [1,2-ethylenediphosphonic acid]
40 | 69.5 °C | O=C(O)\C=C(/C)C [B,B-dimethylacrylic acid]
41 | 98 °C | COC(=O)c1ccc2nccnc2c1 [methyl quinoxaline-6-carboxylate]
42 | 160 °C | Cc1ncc(CO)c(CO)c1O [Pyridoxine]
43 | 90 °C | CC(=O)NC1=C(C)CCCC1 [N-(2-methylcyclohex-1-en-1-yl)acetamide]
44 | -115 °C | CC=C(C)Br [2-bromo-trans-2-butene]
45 | 100 °C | CCC(=O)c1ccc(O)cc1O [2',4'-dihydroxypropiophenone]
46 | 114 °C | O=C(O)CCCCC=C(c1ccccc1)c1cccnc1 [isbogrel]
47 | -69 °C | CC(C)C(=O)C(C)C [diisopropyl ketone]
48 | 155 °C | CCOC(=O)Cc1cc(/C(=N/Nc2ccccc2)C(=O)OCC)c([N+](=O)[O-])cc1[N+](=O)[O-]
49 | 211 °C | CN1C(C(=O)Nc2ccccn2)=C(O)c2sccc2S1(=O)=O [tenoxicam]
50 | 188 °C | CC(CCc1ccccc1)NCC(O)c1ccc(O)c(C(N)=O)c1 (configuration not stated) [labetalol]
51 | 151 °C | O=C(N[C@H](CO)[C@H](O)c1ccc([N+](=O)[O-])cc1)C(Cl)Cl [chloramphenicol]
52 | 160 °C | NC(=O)/C=C\C(=O)O [(2Z)-4-Amino-4-oxobut-2-enoic acid]
53 | 53 °C | Cc1ccccc1NC=O [N-(2-Methylphenyl)formamide]

Row | melting point | SMILES
54 | -27 °C | CC(=O)CC(=O)OC(C)C [isopropyl acetoacetate]
55 | -78 °C | CCCC(C)=O [Pentan-2-one]
56 | 105 °C | O=C(O)Cc1ccc(Cl)cc1 [4-chlorophenylacetic acid]
57 | 170 °C | CC(=O)Nc1ccc(O)cc1 [4-acetylaminophenol]
58 | 135 °C | CC(C)(C)OC(=O)N[C@@H](Cc1ccc(Cl)cc1Cl)C(=O)O [N-boc-2,4-dichloro-L-phenylalanine]
59 | 78 °C | O=C(O)Cc1cccc(C(F)(F)F)c1 [3-(trifluoromethyl)phenylacetic acid]
60 | 47 °C | COc1cc(O)cc(OC)c1 [3,5-dimethoxyphenol]
61 | 130 °C | CC(=O)O[C@@H]1[C@@H](OC(C)=O)[C@H](C)O[C@H](C#N)[C@@H]1OC(C)=O
62 | -87 °C | C=C(C)Br [2-bromopropene]
63 | 97 °C | Cc1cc(I)cc(C)c1O [2,6-dimethyl-4-iodophenol]
64 | 87 °C | OC[C@@H]1OC(O)[C@@H](O)[C@H]1O (stereo partly drawn) [L-ribose]
65 | 189 °C | CC(=O)c1ccc(S(=O)(=O)NC(=O)NC2CCCCC2)cc1 [Acetohexamide]
66 | 17 °C | CC(=O)O [acetic_acid]
67 | 102 °C | Cc1ccc(C(N)=O)cc1C [3,4-dimethylbenzamide]
68 | 3 °C | CC(=O)OCC(COC(C)=O)OC(C)=O [Propane-1,2,3-triyl triacetate]
69 | 150 °C | CC(=O)Oc1ccc2c(C)cc(=O)oc2c1 [4-methylumbelliferyl acetate]
70 | 16 °C | C[C@@H](O)[C@@H](C)O [R,R-2,3-butanediol]
71 | 168 °C | OCC(O)C(O)C(O)C(O)CO (configuration not stated) [Mannitol]
72 | 220 °C | C[C@]12CCC(=O)C=C1CC[C@@H]1[C@@H]2[C@@H](O)C[C@@]2(C)[C@H]1CC[C@]2(O)C(=O)CO [Hydrocortisone]

From the Bradley open melting point set (2014)
